Source: the kinase profiling compilation of Christmann-Franck et al. (2016)

Key:
Assay in all cases: Free Choice Kinase Assay Projects, Flashplate
TEK (human) = TEK (human) (UniProt Q02763); conditions: compound 10.0 µM; ATP 1 µM
AXL (human) = AXL (human) (UniProt P30530); conditions: compound 10.0 µM; ATP 0.3 µM
[1] = system: BRAF (human), P15056 [V600E]; conditions: compound 10.0 µM; ATP 3 µM
SRC (human) = SRC (human) (UniProt P12931); conditions: compound 10.0 µM; ATP 0.3 µM
AURKA (human) = AURKA (human) (UniProt O14965); conditions: compound 10.0 µM; ATP 10 µM
IGF1R (human) = IGF1R (human) (UniProt P08069); conditions: compound 10.0 µM; ATP 1 µM
Chain of IGF1R (human) (P08069 whole entry, looked up): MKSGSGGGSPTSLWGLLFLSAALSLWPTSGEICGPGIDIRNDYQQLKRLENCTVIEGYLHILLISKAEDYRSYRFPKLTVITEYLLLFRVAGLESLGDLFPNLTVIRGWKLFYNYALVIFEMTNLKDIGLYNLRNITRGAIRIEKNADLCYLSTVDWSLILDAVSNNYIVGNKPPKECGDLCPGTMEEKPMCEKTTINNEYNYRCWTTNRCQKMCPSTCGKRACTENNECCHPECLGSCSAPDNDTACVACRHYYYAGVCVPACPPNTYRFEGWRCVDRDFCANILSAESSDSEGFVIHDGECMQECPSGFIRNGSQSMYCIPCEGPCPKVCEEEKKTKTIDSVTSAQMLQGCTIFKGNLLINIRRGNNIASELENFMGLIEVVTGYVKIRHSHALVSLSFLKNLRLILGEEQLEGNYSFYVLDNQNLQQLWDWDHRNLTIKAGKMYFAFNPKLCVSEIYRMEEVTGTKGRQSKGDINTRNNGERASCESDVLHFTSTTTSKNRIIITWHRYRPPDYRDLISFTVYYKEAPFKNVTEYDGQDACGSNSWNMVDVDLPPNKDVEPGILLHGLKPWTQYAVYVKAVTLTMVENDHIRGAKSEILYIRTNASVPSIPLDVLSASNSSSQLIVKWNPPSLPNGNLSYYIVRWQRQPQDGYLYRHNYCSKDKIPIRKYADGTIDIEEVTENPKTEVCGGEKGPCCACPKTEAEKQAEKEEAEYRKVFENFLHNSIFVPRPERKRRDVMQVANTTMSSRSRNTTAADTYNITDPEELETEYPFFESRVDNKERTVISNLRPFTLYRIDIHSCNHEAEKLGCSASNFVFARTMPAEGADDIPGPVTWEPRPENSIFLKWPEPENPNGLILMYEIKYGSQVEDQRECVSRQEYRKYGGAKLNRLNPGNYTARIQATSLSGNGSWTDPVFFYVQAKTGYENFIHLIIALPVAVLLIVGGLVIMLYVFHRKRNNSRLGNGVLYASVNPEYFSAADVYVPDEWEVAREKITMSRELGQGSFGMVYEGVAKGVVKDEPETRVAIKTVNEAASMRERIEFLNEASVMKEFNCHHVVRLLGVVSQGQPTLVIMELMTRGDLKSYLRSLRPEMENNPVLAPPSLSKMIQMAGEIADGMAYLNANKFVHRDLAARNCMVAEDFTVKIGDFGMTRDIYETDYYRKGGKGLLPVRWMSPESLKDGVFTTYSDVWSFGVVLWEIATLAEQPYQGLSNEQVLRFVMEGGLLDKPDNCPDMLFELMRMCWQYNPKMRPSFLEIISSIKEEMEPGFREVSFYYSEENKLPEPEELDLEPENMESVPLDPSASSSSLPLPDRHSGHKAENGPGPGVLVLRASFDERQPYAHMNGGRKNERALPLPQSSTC

MAPK14 (human) = MAPK14 (human) (UniProt Q16539); conditions: compound 10.0 µM; ATP 1 µM
PTK2 (human) = PTK2 (human) (UniProt Q05397); conditions: compound 10.0 µM; ATP 1 µM
PLK4 (human) = PLK4 (human) (UniProt O00444); conditions: compound 10.0 µM; ATP 0.3 µM
AKT1 (human) = AKT1 (human) (UniProt P31749); conditions: compound 10.0 µM; ATP 3 µM
MAP3K8 (human) = MAP3K8 (human) (UniProt P41279); conditions: compound 10.0 µM; ATP 3 µM
MAPK10 (human) = MAPK10 (human) (UniProt P53779); conditions: compound 10.0 µM; ATP 0.3 µM
AURKB (human) = AURKB (human) (UniProt Q96GD4); conditions: compound 10.0 µM; ATP 10 µM
KDR (human) = KDR (human) (UniProt P35968); conditions: compound 10.0 µM; ATP 1 µM
Chain of KDR (human) (P35968 whole entry, looked up): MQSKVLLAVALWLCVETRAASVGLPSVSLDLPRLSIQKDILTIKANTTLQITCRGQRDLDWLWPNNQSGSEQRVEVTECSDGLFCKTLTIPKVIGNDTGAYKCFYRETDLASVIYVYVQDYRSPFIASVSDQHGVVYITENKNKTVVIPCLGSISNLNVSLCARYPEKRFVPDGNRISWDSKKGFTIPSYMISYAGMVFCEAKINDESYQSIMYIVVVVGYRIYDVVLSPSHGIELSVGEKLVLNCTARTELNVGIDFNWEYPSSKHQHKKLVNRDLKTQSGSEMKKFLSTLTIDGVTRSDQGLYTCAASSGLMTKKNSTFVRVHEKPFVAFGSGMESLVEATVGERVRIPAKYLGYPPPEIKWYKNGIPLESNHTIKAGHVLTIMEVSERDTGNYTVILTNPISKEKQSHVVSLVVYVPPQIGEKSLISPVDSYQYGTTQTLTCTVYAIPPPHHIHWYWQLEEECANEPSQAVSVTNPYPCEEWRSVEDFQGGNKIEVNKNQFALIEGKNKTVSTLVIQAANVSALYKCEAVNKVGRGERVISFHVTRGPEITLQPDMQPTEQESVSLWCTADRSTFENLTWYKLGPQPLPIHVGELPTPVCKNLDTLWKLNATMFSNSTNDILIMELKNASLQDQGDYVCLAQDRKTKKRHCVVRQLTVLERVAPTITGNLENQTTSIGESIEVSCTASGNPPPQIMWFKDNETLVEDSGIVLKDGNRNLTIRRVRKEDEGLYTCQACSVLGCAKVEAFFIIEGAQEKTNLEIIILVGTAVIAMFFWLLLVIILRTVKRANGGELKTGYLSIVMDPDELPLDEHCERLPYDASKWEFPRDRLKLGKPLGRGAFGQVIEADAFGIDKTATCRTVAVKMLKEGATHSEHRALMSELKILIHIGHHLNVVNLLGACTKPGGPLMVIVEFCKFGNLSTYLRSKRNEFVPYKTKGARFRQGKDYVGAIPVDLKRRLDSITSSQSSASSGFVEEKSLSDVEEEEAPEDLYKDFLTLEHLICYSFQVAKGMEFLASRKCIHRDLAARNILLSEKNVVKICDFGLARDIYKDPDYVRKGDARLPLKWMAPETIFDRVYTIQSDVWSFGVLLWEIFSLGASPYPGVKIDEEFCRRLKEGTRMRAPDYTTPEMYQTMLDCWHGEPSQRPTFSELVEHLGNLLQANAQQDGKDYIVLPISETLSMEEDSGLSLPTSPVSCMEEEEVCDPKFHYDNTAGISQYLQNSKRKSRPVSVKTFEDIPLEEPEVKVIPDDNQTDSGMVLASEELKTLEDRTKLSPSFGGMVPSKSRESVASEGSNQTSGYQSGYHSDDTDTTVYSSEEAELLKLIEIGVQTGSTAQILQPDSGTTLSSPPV

EPHB4 (human) = EPHB4 (human) (UniProt P54760); conditions: compound 10.0 µM; ATP 1 µM
MET (human) = MET (human) (UniProt P08581); conditions: compound 10.0 µM; ATP 0.3 µM
Chain of MET (human) (P08581 whole entry, looked up): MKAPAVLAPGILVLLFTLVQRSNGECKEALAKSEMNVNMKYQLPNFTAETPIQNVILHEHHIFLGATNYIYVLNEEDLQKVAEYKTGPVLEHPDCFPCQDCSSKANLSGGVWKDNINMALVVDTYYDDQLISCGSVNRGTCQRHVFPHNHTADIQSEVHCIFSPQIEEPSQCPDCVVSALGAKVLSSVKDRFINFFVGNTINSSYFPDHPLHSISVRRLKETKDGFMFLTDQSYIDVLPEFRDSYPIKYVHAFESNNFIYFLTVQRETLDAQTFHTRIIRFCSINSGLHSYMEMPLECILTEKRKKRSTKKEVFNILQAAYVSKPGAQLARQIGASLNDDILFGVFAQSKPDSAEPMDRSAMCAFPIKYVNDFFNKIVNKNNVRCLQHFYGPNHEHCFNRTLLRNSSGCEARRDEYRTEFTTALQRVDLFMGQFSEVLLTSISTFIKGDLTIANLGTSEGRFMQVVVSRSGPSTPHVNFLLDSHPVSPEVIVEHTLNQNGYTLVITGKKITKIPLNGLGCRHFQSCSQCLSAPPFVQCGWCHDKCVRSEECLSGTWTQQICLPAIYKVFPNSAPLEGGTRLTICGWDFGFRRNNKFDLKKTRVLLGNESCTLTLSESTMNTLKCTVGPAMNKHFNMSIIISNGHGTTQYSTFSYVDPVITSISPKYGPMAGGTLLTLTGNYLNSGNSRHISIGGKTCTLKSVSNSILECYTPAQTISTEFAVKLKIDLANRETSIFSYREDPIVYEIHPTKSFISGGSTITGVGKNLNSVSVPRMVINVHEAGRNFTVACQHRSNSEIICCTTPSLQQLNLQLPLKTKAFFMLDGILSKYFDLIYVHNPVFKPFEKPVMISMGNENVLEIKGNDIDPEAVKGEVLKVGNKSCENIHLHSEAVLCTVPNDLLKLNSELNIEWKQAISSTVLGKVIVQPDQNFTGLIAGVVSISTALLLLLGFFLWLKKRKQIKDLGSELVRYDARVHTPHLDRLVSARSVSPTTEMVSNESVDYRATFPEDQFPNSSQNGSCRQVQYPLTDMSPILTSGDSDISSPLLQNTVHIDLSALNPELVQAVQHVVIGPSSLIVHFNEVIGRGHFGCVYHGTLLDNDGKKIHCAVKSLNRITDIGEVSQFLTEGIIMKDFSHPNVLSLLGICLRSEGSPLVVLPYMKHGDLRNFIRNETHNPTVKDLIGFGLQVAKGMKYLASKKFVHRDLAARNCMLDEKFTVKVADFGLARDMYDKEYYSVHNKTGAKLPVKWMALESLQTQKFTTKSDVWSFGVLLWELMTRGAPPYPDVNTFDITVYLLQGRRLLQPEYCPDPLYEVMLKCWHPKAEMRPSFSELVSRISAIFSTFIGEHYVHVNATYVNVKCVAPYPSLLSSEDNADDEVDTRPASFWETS

EGFR (human) = EGFR (human) (UniProt P00533); conditions: compound 10.0 µM; ATP 0.3 µM
PLK1 (human) = PLK1 (human) (UniProt P53350); conditions: compound 10.0 µM; ATP 1 µM
CSNK2A1 (human) = CSNK2A1 (human) (UniProt P68400); conditions: compound 10.0 µM; ATP 0.1 µM
Chain of CSNK2A1 (human) (P68400 whole entry, looked up): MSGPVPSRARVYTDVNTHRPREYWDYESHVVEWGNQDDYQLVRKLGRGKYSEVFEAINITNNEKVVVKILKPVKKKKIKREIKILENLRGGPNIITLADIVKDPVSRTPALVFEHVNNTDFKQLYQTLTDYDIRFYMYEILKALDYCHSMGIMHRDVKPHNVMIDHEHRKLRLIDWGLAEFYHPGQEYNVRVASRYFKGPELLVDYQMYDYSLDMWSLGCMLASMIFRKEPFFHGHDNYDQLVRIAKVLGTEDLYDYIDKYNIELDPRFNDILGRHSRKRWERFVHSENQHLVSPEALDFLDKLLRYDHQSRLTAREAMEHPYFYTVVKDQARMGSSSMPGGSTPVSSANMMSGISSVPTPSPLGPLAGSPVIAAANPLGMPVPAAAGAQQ

CDK2 CCNA2 (human) = CDK2 CCNA2 (human) (UniProt P24941+P20248); conditions: compound 10.0 µM; ATP 0.3 µM
PDGFRB (human) = PDGFRB (human) (UniProt P09619); conditions: compound 10.0 µM; ATP 0.3 µM
NUAK1 (human) = NUAK1 (human) (UniProt O60285); conditions: compound 10.0 µM; ATP 1 µM
CDK4 CCND1 (human) = CDK4 CCND1 (human) (UniProt P11802+P24385); conditions: compound 10.0 µM; ATP 3 µM
Chain of CDK4 CCND1 (human) (P11802 whole entry, looked up): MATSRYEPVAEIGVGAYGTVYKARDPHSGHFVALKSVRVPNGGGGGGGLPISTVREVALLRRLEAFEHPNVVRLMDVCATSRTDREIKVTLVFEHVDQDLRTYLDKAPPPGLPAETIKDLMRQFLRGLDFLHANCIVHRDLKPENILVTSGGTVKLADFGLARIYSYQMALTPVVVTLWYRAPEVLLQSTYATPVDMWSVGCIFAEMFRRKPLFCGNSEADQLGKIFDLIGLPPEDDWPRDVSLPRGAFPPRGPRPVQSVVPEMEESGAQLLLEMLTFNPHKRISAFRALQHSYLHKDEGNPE
Chain of CDK4 CCND1 (human) (P24385 whole entry, looked up): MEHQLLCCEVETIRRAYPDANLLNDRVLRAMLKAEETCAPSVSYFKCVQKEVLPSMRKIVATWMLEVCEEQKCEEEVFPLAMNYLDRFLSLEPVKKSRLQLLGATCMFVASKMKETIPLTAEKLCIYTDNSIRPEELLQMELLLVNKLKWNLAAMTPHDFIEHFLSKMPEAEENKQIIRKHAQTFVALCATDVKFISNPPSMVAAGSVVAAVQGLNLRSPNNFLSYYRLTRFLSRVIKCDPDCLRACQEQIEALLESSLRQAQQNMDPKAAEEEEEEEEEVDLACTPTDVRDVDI

ERBB2 (human) = ERBB2 (human) (UniProt P04626); conditions: compound 10.0 µM; ATP 1 µM

| SMILES | residual activity (TEK (human)) | residual activity (AXL (human)) | residual activity (SRC (human)) | residual activity (AURKA (human)) | residual activity (IGF1R (human)) | residual activity (MAPK14 (human)) | residual activity (PTK2 (human)) | residual activity (PLK4 (human)) | residual activity (AKT1 (human)) | residual activity (MAP3K8 (human)) | residual activity (MAPK10 (human)) | residual activity (AURKB (human)) | residual activity (KDR (human)) | residual activity (EPHB4 (human)) | residual activity (MET (human)) | residual activity (EGFR (human)) | residual activity (PLK1 (human)) | residual activity (CSNK2A1 (human)) | residual activity (CDK2 CCNA2 (human)) | residual activity (PDGFRB (human)) | further results |
| --- | --- | --- | --- | --- | --- | --- | --- | --- | --- | --- | --- | --- | --- | --- | --- | --- | --- | --- | --- | --- | --- |
| Oc1ccc(CSc2nc(-c3ccncc3)c(-c3ccc(F)cc3)[nH]2)cc1 | 33% | 91% | 34% | 64% | 104% | 4% | 99% | 51% | 130% | 96% | 48% | 78% | 26% | 42% | 78% | 20% | 120% | 107% | 117% | 65% | residual activity [1]: 5%; residual activity (NUAK1 (human)): 126%; residual activity (CDK4 CCND1 (human)): 103%; residual activity (ERBB2 (human)): 22% |
| CSc1nc(-c2ccnc(F)c2)c(-c2ccc(F)cc2)[nH]1 | 71% | 101% | 60% | 93% | 96% | 2% | 100% | 76% | 102% | 105% | 48% | 90% | 39% | 61% | 91% | 23% | 85% | 98% | 125% | 81% | residual activity (NUAK1 (human)): 105%; residual activity (CDK4 CCND1 (human)): 132%; residual activity (ERBB2 (human)): 18% |
| Fc1ccc(-c2[nH]c(SCCc3ccccc3)nc2-c2ccncc2)cc1 | 51% | 84% | 43% | 75% | 43% | 41% | 95% | 56% | 122% | 69% | 81% | 78% | 45% | 48% | 66% | 24% | 93% | 96% | 72% | 80% | residual activity (NUAK1 (human)): 77%; residual activity (CDK4 CCND1 (human)): 59%; residual activity (ERBB2 (human)): 41% |
| CSc1nc(-c2ccnc(N(C(=O)C3CC3)C(=O)C3CC3)c2)c(-c2ccc(F)cc2)n1C | 24% | 38% | 19% | 56% | 36% | 4% | 79% | 54% | 122% | 106% | 18% | 57% | 14% | 21% | 99% | 26% | 118% | 90% | 211% | 50% | residual activity (NUAK1 (human)): 106%; residual activity (CDK4 CCND1 (human)): 112%; residual activity (ERBB2 (human)): 26% |
| Fc1ccc(-c2[nH]c(CCc3ccccc3)nc2-c2ccncc2)cc1 | 9% | 54% | 1% | 44% | 18% | 0% | 99% | 26% | 76% | 69% | 14% | 50% | 4% | 13% | 35% | 1% | 95% | 81% | 45% | 20% | residual activity (NUAK1 (human)): 89%; residual activity (CDK4 CCND1 (human)): 99%; residual activity (ERBB2 (human)): 2% |
